Results: paper PMC3585840 (Drugs in R&D, 2012)
Where two headings read alike, the source gives them in different places.

Tests used:
[1] = Safety and tolerability; type: in vivo, human
[2] = tested on: urinary levels of norepinephrine, dopamine, epinephrine and homovanillic acid; assay: Urinary catecholamine excretion; type: in vivo, human; settings: for decrease of urinary excretion of norepinephrine at day 10 in relation to day 1: 24-hour urine
[3] = type: in vivo, human
[4] = tested on: spontaneously hypertensive rats (SHR); settings: cited from earlier work
[5] = Plasma pharmacokinetics, rising multiple-dose study; type: in vivo, human
[6] = Supine blood pressure and ECG-measured heart rate; type: in vivo, human; settings: for decrease of supine DBP Emax in relation to day 1 / decrease of supine DBP AUCEC in relation to day 1: repeated dosing
[7] = cited from earlier work
[8] = healthy subjects; cited from earlier work
[9] = tested on: DβH; settings: cited from earlier work
[10] = etamicastat 25–600 mg once daily for 10 days

In the case of Cl.NCCc1c[nH]c(=S)n1[C@H]1COc2c(F)cc(F)cc2C1 [Etamicastat, (R)-5-(2-aminoethyl)-1-(6,8-difluorochroman-3-yl)-1,3-dihydroimidazole-2-thione hydrochloride], the “subjects reporting diarrhea as an AE” value ([1]; 600 mg etamicastat group) is reported as 83%, the clinical laboratory evaluations [1, 10] is reported as “no clinically significant abnormality” and the “intensity of adverse events” value [1, 10] is reported as “mild to moderate”. The serious adverse events [1, 10] was “no serious AEs”, the tolerability ([1]; etamicastat up to 600 mg once daily for 10 days) was “generally well tolerated” and the “change in urinary excretion of homovanillic acid, epinephrine and dopamine” value ([2]; day 1 to day 10, all dose groups) was “No relevant changes”. The “decrease in norepinephrine urinary excretion” value ([2]; doses of etamicastat 100 mg and above, day 10 vs day 1) was 32–36%, the “decrease of urinary excretion of norepinephrine at day 10 in relation to day 1” value (“decrease of urinary excretion … to day 1” below) ([2]; etamicastat 25 mg once daily) was 24% and the “decrease of urinary excretion … to day 1” value ([2]; etamicastat 50 mg once daily) was 18%. For the same molecule, the “decrease of urinary excretion … to day 1” value ([2]; etamicastat 100 mg once daily) was 36%, the “decrease of urinary excretion … to day 1” value ([2]; etamicastat 200 mg once daily) was 34% and the “decrease of urinary excretion … to day 1” value ([2]; etamicastat 400 mg once daily) was 32%. The “decrease of urinary excretion … to day 1” value ([2]; etamicastat 600 mg once daily) was 34%, the urinary excretion rate ([3]; first dose, etamicastat 25 mg) was 0.3 ± 0.1 mg/h and the urinary excretion rate ([3]; first dose, etamicastat 600 mg) was 8.5 ± 3.2 mg/h. For the same molecule, the urinary excretion rate ([3]; last dose, etamicastat 25 mg) was 0.4 ± 0.2 mg/h, the urinary excretion rate ([3]; last dose, etamicastat 600 mg) was 10.6 ± 2.8 mg/h and the CL renal ([3]; male, human, urine and plasma, po) was 198 to 267 mL/min. The “blood pressure and norepinephrine urinary excretion” value ([4]; chronically administered in drinking water, SHR rats) was “significantly reduced”, the “urinary excretion of dopamine” value ([4]; chronically administered in drinking water, only in SHR rats) was “increased significantly” and the “systolic and diastolic blood pressure (but not the heart rate)” value ([4]; oral administration, SHR rats, dose-dependent, not observed in normotensive control rats) was “decreased”. For the same molecule, the “days of dosing until steady-state plasma concentrations were attained” value ([5]; all dose groups 25–600 mg once daily) was “up to 9 days”, the linearity of pharmacokinetics ([5]; dose range 25–600 mg) was “linear pharmacokinetics” and the “day at which steady state was reached (trough plasma concentrations)” value (shortened to “day at which steady state was reached”) ([5]; etamicastat 200 mg once daily) was 9 days. For the same molecule, the “day at which steady state was reached” value ([5]; etamicastat 400 mg once daily) was 8 days, the “effect of NAT1 phenotype on etamicastat pharmacokinetics” value ([5]; etamicastat 25–600 mg) was “No relevant effect” and the half-life ([5]; male, human, plasma, oral, mean apparent t1/2 following the first dose, range over etamicastat 25–600 mg, plasma) was 9 to 15 h. The “mean observed accumulation ratio (RO)” value ([5]; range over etamicastat 25–600 mg once daily for 10 days) was 1.3–1.9, the “time after dosing at which maximum concentration (Cmax) was reached” value ([5]; range over etamicastat 25–600 mg once daily, plasma) was 1 to 3 h and the “day at which steady state was reached” value ([5]; remaining dose groups) was under 6 days. The “decrease of supine DBP Emax in relation to day 1” value ([6]; etamicastat 100 mg, p < 0.01) was 5.6 mmHg, the “decrease of supine DBP AUCEC in relation to day 1” value ([6]; etamicastat 100 mg, p < 0.05) was 223 mmHg · h and the “decrease of supine DBP AUCEC in relation to day 1” value ([6]; etamicastat 200 mg, p < 0.05) was 193 mmHg · h. The “decrease of supine DBP Emax in relation to day 1” value ([6]; etamicastat 200 mg, p < 0.05) was 5.9 mmHg, the “change in SBP and HR” value ([6]; following repeated dosing, any dose level) was “did not significantly change” and the “changes in SBP, DBP or HR” value ([6]; following the first dose, etamicastat 25–600 mg) was “no significant changes”. For the same molecule, the “time of maximum plasma concentrations (Cmax) after dosing” value ([7]; single dose 2–1200 mg) was 1 to 3 h, the tolerability ([7]; single doses 2–1200 mg) was “well tolerated at all the investigated dose levels” and the “longer elimination half-life (t1/2)” value ([7]; single etamicastat doses ≥100 mg) was 16 to 20 h. The “effect of food on absorption” value [8] was “delayed by the presence of food” and the “effect of food on extent of systemic exposure (AUC)” value [8] was “no significant effect”.

In the case of NCc1c[nH]c(=S)n1[C@H]1CCc2c(F)cc(F)cc2C1 [Nepicastat], the “potency as DβH inhibitor versus first- and second-generation inhibitors” value [9] is listed as “much greater potency”.
